From patent US7875625B2, “Cyclohepta[b]pyridine-3-carbonylguanidine derivative and pharmaceutical product containing same” (Toa Eiyo Ltd., priority 2005, dated 2011) come the findings set out here.

Where a name gives a salt, the structure may show the parent alone. Some results are limits rather than exact numbers.

Data set [1] deals with T1, Na^+/H^+ exchanger (NHE) (Rattus norvegicus, UniProt P26431).
T1 construct: from tissue; host or cells: platelet-rich plasma from Wistar rat blood
The data set is described as follows: NHE inhibitory effect test (swelling of rat platelets induced by sodium propionate). The class given is cell-based. To be noted: for IC50: rat platelet-rich plasma, sodium propionate buffer pH 6.7, 300 μM Amiloride taken as 100% inhibition, Probit method; for NHE inhibitory activity (in words): compared with the control compound. Here is the method: The NHE inhibitory activity was measured according to the method by Scholz et al. [British Journal of Pharmacology, Vol. 109, p. 562-568 (1993)], taking the swelling of rat platelets induced by sodium propionate as an index.
Under etherization, blood was collected (8 mL) from the abdominal aorta of a Wistar rat, and 1 mL of a citrate dextrose solution as an anticoagulant was added. The blood sample was immediately centrifuged at 90×g for 10 minutes, and then the collected supernatant was taken as platelet-rich plasma. Subsequently, to 250 μL of a 140 mM sodium propionate buffer solution containing the test compound dissolved in dimethylsulfoxide (pH 6.7, final dimethylsulfoxide concentration 1%), the platelet-rich plasma prepared in the above (number of platelet; 10×10^6/50 μL) was added, and the decrease in the absorbance associated with the swelling of platelets was measured over time with a Hematracer (NKK Corp.).
The rate of decrease in the absorbance at 20 seconds after the addition of the platelet-rich plasma was taken as the NHE activity, and the inhibitory activity of the respective compounds was expressed as a relative activity, while the action obtained upon addition of 300 μM of Amiloride was taken as 100% inhibition.
In addition, the test results were obtained by calculating the concentration at which the inhibitory activity of the test compound becomes 50% (IC50 value), by a Probit method.

In data set [2] the test system is reperfusion-induced arrhythmia upon myocardial ischemia. In words: Reperfusion-induced arrhythmia inhibitory action test. The class given is in vivo, rat. To be noted: male SD rats, 3.62 mmol/L, 1 mL/kg intravenous, within 10 minutes after reperfusion. Here is the method:
Subsequently, in evaluation of the in vivo NHE inhibitory action, the effect of the test compound on reperfusion-induced arrhythmia upon myocardial ischemia was evaluated according to the method of Aihara et al. [European Journal of Pharmacology, Vol. 404, p. 221-229 (2000)]. Under anesthesia using pentobarbital sodium (60 mg/kg, intraperitoneal administration), cannulae were inserted into trachea, femoral vein and carotid artery of male SD rats ([…]) for artificial ventilation, drug administration and blood pressure measurement, respectively. The blood pressure was measured using a strain pressure amplifier via a pressure transducer, while the heart rate was measured from the blood pressure pulse wave using a cardiotachometer. Furthermore, an electrocardiogram (lead II) was measured from the electrodes attached to each four limbs. Next, under artificial ventilation, left thoracotomy was performed and a snare (5-0 nylon) was loosely placed around a blood vessel which was about 3 mm apart from the origin of the left coronary artery. Thereafter, it was confirmed that arrhythmia was not occurred for 10 minutes, and then the snare was fastened to induce local myocardial ischemia. Furthermore, after 4 minutes of myocardial ischemia, the compound was intravenously administered for 1 minute, and after 5 minutes of myocardial ischemia, the snare was loosened, then the arrhythmia occurred after reperfusion was recorded and analyzed with an arrhythmia analyzer (Softron Co., Ltd.), thereby the anti-arrhythmic action of the compound was evaluated. […] The control group was administered with physiological saline.
With regard to the ventricular fibrillation (Vf) which occurred within 10 minutes after reperfusion (in the cases of halfway death, up to the time point where cardiac arrest was confirmed), arrhythmia analysis was performed according to the Guidelines for Lambeth Convention [Cardiovascular research, Vol. 22, p. 447-455, 1988], and evaluation was made in terms of the frequency of Vf occurrence, cumulative duration time of Vf, and the mortality.
The frequency of Vf occurrence, cumulative duration of Vf, and the mortality for the respective test compounds are presented in Table 2.

Data set [3] is described as follows: Metabolic stability test in rat (generation of control compound in plasma). The class given is in vivo. To be noted: male SD rats; for Plasma concentration of the control compound, after 5 min / Plasma concentration of the control compound, after 15 min / Plasma concentration of the control compound, after 30 min / Plasma concentration of the control compound, after 60 min / Plasma concentration of the control compound, after 120 min: equivalent of 1 mg/kg control compound via tail vein, LC/MS/MS; for Decomposition into the Control Compound in vivo (in words): tail vein, plasma 5-120 min. The source says: The compound represented by Formula (1) of the present invention has a structure in which the hydroxyl group on the 9-position of a 9-hydroxymethyl-cyclohepta[b]pyridine-3-carbonylguanidine derivative is converted to a specific substituent. However, if the compound is metabolized in vivo to remove the specific substituent from the compound, there may be generated the original 9-hydroxymethyl-cyclohepta[b]pyridine-3-carbonylguanidine derivative, which has toxic effects on the central nervous system. Thus, the inventive compounds as synthesized in Examples were administered in vivo to study whether the control compound, which was the corresponding 9-hydroxymethyl product, was generated.
Male SD rats (7 weeks old) were administered at 1 mg/kg (an amount calculated excluding salts) of the control compound, an equivalent amount of the Inventive Compound 2, 4, 6, 7 or 12, or Reference Compound 20, through the tail vein. After administration, about 0.2 mL of blood samples were collected after 5, 15, 30, 60 and 120 minutes, and the blood samples were centrifuged at 4° C. at a speed of rotation of 15000 for 15 minutes, thus to separate the supernatant plasma. The concentration of the control compound in the plasma was measured by LC/MS/MS. The measurement results were shown as +++ when the detected plasma concentration of the control compound is 200 ng/mL or greater; ++ for more than 100 ng/mL and less than 200 ng/mL; + for more than 20 ng/mL and less than 100 ng/mL; and − for less than 20 ng/mL or no detection.

For data set [4], the system named is male mice. The data set is described as follows: Toxicity test with 2-days repeated intraperitoneal administration in mouse. Format: in vivo. To be noted: equivalent of 300 mg/kg control compound intraperitoneally once a day for 2 days. Here is the method: For three male mice in each group, 300 mg/kg of the Control Compound (an amount calculated excluding salts), or an equivalent amount of the Inventive Compound 2, 4, 6, 7 or 12 were intraperitoneally administered once a day for 2 days, and a histopathological tests were performed. The Control Compound, and the Inventive Compounds 2, 4 and 6 were suspended in a 0.5% tragacanth gum solution, and the Inventive Compound 7 was suspended in a 10 DMSO-containing 0.5% tragacanth gum solution, while the Inventive Compound 12 was suspended in olive oil. For the histopathological test, in order to make a more thorough examination of central nervous toxicity, the brain was examined after whole body was subjected to perfusion fixation with a 4% formaldehyde in neutral phosphate buffer as a fixing solution using a liquid transporting pump under pentobarbital sodium anesthesia.

Data set [5] relates to Beagle dogs. The data set is described as follows: Toxicity test after 4-days repeated intravenous administration in beagle dogs. The class given is in vivo, dog. To be noted: equivalent of 30 mg/kg control compound intravenously once a day for 4 days. Here is the method:
With one male and one female dogs in each group, 30 mg/kg of the Control Compound dissolved in physiological saline (an amount calculated excluding salts), or an equivalent amount of the Inventive Compound 2, 4, 6 or 8 was repeatedly administered intravenously once a day for 4 days, and general symptom observation and pharmacological histopathologic examination were performed.

T1 sequence (P26431 whole entry): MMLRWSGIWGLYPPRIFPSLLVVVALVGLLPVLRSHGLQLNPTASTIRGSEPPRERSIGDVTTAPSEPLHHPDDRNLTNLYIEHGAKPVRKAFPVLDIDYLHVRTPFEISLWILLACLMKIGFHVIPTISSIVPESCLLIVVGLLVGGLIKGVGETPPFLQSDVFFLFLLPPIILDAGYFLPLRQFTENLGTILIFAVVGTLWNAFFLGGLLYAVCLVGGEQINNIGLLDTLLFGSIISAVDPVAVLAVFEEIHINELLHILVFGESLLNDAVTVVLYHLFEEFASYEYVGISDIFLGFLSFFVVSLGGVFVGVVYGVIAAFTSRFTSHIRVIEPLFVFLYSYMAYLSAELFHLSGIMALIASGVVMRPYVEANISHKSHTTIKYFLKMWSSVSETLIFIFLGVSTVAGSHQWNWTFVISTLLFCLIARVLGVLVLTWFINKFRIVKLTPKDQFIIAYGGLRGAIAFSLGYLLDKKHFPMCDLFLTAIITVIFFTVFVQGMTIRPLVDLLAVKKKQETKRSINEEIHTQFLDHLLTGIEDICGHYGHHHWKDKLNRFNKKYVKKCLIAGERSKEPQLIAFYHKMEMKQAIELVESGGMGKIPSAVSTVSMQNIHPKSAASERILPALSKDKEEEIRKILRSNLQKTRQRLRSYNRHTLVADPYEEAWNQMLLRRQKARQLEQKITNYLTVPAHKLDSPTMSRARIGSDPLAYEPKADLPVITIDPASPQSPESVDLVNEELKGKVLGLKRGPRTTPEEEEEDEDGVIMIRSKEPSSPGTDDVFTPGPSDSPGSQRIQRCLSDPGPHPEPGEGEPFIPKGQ

Take `Cc1nc2c(cc1C(=O)NC(=N)N)CCCCC2COP(=O)([O-])[O-].[Na+].[Na+]` (stereo not drawn) [Reference Compound 20, 3-Guanidinocarbonyl-2-methyl-6,7,8,9-tetrahydro-5H-cyclohepta[b]pyridin-9-ylmethyl phosphate disodium salt, reference compound]: the half-inhibitory concentration (IC50) (in general, the concentration at which inhibition is half-maximal) in data set [1] amounted to 662 nM. For the same compound, in data set [2], the “Cumulative duration of Vf” value came to 46.8 s, the “Frequency of Vf occurrence” value is given as 80% and the Mortality is 40%. Besides, in data set [3], the “Plasma concentration of the control compound, after 5 min” value (“Plasma concentration … after 5 min” below) is reported as “+++ (+++ when the detected plasma concentration of the control compound is 200 ng/mL or greater)”; the “Plasma concentration of the control compound, after 15 min” value (“Plasma concentration … after 15 min” below) was “++ (++ for more than 100 ng/mL and less than 200 ng/mL)”; the “Plasma concentration of the control compound, after 30 min” value (“Plasma concentration … after 30 min” for short) is “+ (+ for more than 20 ng/mL and less than 100 ng/mL)”; the “Plasma concentration of the control compound, after 60 min” value (from here on “Plasma concentration … after 60 min”) is “+ (+ for more than 20 ng/mL and less than 100 ng/mL)”. Moreover, in data set [3], the “Plasma concentration of the control compound, after 120 min” value (from here on “Plasma concentration … after 120 min”) was “− (− for less than 20 ng/mL or no detection)” and the “Decomposition into the Control Compound in vivo (in words)” value (shortened to “Decomposition into the Control Compound”) is recorded as “rapidly degraded to the Control Compound”.
For `Cc1nc2c(cc1C(=O)NC(=N)N)CCCCC2COC(=O)NCCOCCOS(=O)(=O)O` (stereo not drawn) [Inventive Compound 7, 2-[2-(3-Guanidinocarbonyl-2-methyl-6,7,8,9-tetrahydro-5H-cyclohepta[b]pyridin-9-ylmethyloxycarbonylamino)ethoxy]ethyl hydrogen sulfate], the concentration for half-maximal inhibition (IC50) in data set [1] came out at 313 nM. In addition, the “Histopathological finding in the brain” value in data set [4] is reported as “any histologic finding which could be caused by drug administration was not recognized”. Also, in data set [2], the “Cumulative duration of Vf” value came out at 15.4 s, the “Frequency of Vf occurrence” value amounted to 40% and the Mortality was 0%. Further, in data set [3], the “Plasma concentration … after 5 min” value is “− (− for less than 20 ng/mL or no detection)”; the “Plasma concentration … after 15 min” value is reported as “− (− for less than 20 ng/mL or no detection)”; the “Plasma concentration … after 30 min” value is listed as “− (− for less than 20 ng/mL or no detection)”; the “Plasma concentration … after 60 min” value was “− (− for less than 20 ng/mL or no detection)”. In data set [3], the “Plasma concentration … after 120 min” value is on record as “− (− for less than 20 ng/mL or no detection)” and the “Decomposition into the Control Compound” value is listed as “not detected at any time point”.
Consider `Cc1nc2c(cc1C(=O)NC(=N)N)C(OS(=O)(=O)O)CCCC2` (stereo not drawn) [Reference Compound 23, 3-Guanidinocarbonyl-2-methyl-6,7,8,9-tetrahydro-5H-cyclohepta[b]pyridin-5-yl hydrogen sulfate, reference compound], for which, in data set [1], the “NHE inhibitory activity (in words)” value is given as “significant lowering in the activity” and the IC50 is 37100 nM.
The matching figures for `N=C(N)NC(=O)c1cc2c(nc1COS(=O)(=O)O)CCCCC2` [Reference Compound 22, 3-Guanidinocarbonyl-6,7,8,9-tetrahydro-5H-cyclohepta[b]pyridin-2-ylmethyl hydrogen sulfate, reference compound]: “significant lowering in the activity” and > 100000 nM.
With `Cc1nc2c(cc1C(=O)NC(=N)N)CCCCC2COC(=O)NCCOCCOS(=O)(=O)[O-].[Na+]` (stereo not drawn) [Inventive Compound 8, 2-[2-(3-Guanidinocarbonyl-2-methyl-6,7,8,9-tetrahydro-5H-cyclohepta[b]pyridin-9-ylmethyloxycarbonylamino)ethoxy]ethyl sulfate sodium salt], in data set [5], the “General condition (symptom observation)” value is reported as “only vomiting was recognized” and the “Pathologic examination of the brain” value is on record as “any histologic finding which could be caused by drug administration was not recognized”.
In turn, `Cc1nc2c(cc1C(=O)NC(=N)N)CCCCC2COC(=O)NCCOCCOCCOCCOCCOCCOS(=O)(=O)[O-].[Na+]` (stereo not drawn) [Inventive Compound 10, 17-(3-Guanidinocarbonyl-2-methyl-6,7,8,9-tetrahydro-5H-cyclohepta[b]pyridin-9-ylmethyloxycarbonylamino)-3,6,9,12,15-pentaoxaheptadecan-1-yl sulfate sodium salt] gave a 50% inhibitory concentration (IC50) in data set [1] of 291 nM. Besides, in data set [2], the “Cumulative duration of Vf” value worked out at 11.1 s, the “Frequency of Vf occurrence” value was found to be 67% and the Mortality came out at 0%.
`Cc1nc2c(cc1C(=O)NC(=N)N)CCCCC2COC(=O)N[C@H]1CO[C@H]2[C@@H]1OC[C@H]2OS(=O)(=O)O` (stereo partly drawn) [Inventive Compound 12, 2-Deoxy-1,4:3,6-dianhydro-2-(3-guanidinocarbonyl-2-methyl-6,7,8,9-tetrahydro-5H-cyclohepta[b]pyridin-9-ylmethyloxycarbonylamino)-D-glucitol-5-yl hydrogen sulfate] registered an IC50 in data set [1] of 227 nM. In data set [4], the “Histopathological finding in the brain” value is listed as “any histologic finding which could be caused by drug administration was not recognized”. For the same compound, in data set [2], the “Cumulative duration of Vf” value stood at 0.0 s, the “Frequency of Vf occurrence” value is listed as 0% and the Mortality is recorded as 0%. In data set [3], the “Plasma concentration … after 5 min” value is “− (− for less than 20 ng/mL or no detection)”; the “Plasma concentration … after 15 min” value is given as “− (− for less than 20 ng/mL or no detection)”; the “Plasma concentration … after 30 min” value is on record as “− (− for less than 20 ng/mL or no detection)”; the “Plasma concentration … after 60 min” value is “− (− for less than 20 ng/mL or no detection)”. Further, in data set [3], the “Plasma concentration … after 120 min” value is listed as “− (− for less than 20 ng/mL or no detection)” and the “Decomposition into the Control Compound” value is recorded as “not detected at any time point”.
